From PMC4412285, “Broadening the repertoire of melanoma-associated T-cell epitopes” (Cancer Immunology, Immunotherapy : CII, 2015) come the findings set out here.

One test concerns the target T1, HLA-B7 (Homo sapiens, UniProt P01889).
T1 construct: made in house; host or cells: Escherichia coli
Kind of test: MHC ELISA after UV light-mediated peptide exchange. It counts as binding. Details: key: 1 = confirm ed ligand. The settings on record: MHC rescue after UV-induced peptide exchange, absorbance normalized to control ligand HLA-B7/CMV pp65RPH, selected if above 0.70 of control in either of two experiments, duplicates.
Turning to LPSPACQLVL, the Confirmed ligand was found to be 1.
In the case of RLRKGYTPL [TRP-2 497-505], the Confirmed ligand was 1.
VPLAHSSSA [gp100 198-206] displayed a Confirmed ligand of 1.
VPFSVSVSQL [gp100 213-222] returned a Confirmed ligand of 1.
For the sequence RAMLGTHTM [gp100 176-184], the Confirmed ligand came out at 1.
In turn, VIRQNIHSL [TRP-2 125-133] yielded a Confirmed ligand of 1.
Regarding APLGPQFPF [Tyrosinase 63-71], the Confirmed ligand is 1.
On the same count and under the same terms, next, GPNCTERRLL [Tyrosinase 109-118]: 1; GAAMVGAVL: 1; GPHISYPPL [MAGE-A3 296-304]: 1.
The sequence LPHSSSHWL [gp100 630-638] displayed a Confirmed ligand of 1.
With SPLLSGQQV [gp100 653-661], the Confirmed ligand is given as 1.
On the same count and under the same terms, next, IPLYRNGDF [Tyrosinase 430-438]: 1.
Consider MPREDAHFI [Mart1 1-9], for which the Confirmed ligand was found to be 1.
Take CPIGENSPLL: the Confirmed ligand turned out to be 1.
RAREPVTKA [MAGE-A3 125-133] showed a Confirmed ligand of 1.
Consider SPQGASSLPT [MAGE-A3 64-73], for which the Confirmed ligand amounted to 1.
In turn, APRGPHGGA [NY-ESO-1 60-68] returned a Confirmed ligand of 1.
For RPWSGPYIL [TRP-2 69-77], the Confirmed ligand is listed as 1.
The same measure, in the same setting: the value for VPLAHSSSAF [gp100 198-207] was 1; that for YPEWTEAQRL [gp100 49-58] was 1; that for GPRGAGAARA [NY-ESO-1 44-53] was 1.
Consider APAFLPWHRL [Tyrosinase 204-213], for which the Confirmed ligand was 1.
In turn, APRGPHGGAA [NY-ESO-1 60-69] yielded a Confirmed ligand of 1.
On the same count and under the same terms, the value for FPRACVSSK [Tyrosinase 20-28] was 1.
In turn, CPRLGAESA [TRP-2 41-49] displayed a Confirmed ligand of 1.
Still for that read-out and setting: the value for RLVKRQVPL [gp100 465-473] was 1; that for LPTTMNYPL [MAGE-A3 71-79] was 1.
As to TPRLPSSAD [Tyrosinase 309-317], the Confirmed ligand worked out at 1.
Turning to LPHSAANDPI [TRP-2 382-391], the Confirmed ligand is 1.
Same read-out and setting: next, APPLPVPGVL [NY-ESO-1 113-122]: 1.
Still for that read-out and setting: next, LPEEKQPLLM [Tyrosinase 507-516]: 1; SPQEREQFL [TRP-2 134-142]: 1; TPAEVSIVV [gp100 401-409]: 1.
In turn, LPEEKQPLL [Tyrosinase 507-515] showed a Confirmed ligand of 1.
The sequence TPEATGMTPA [gp100 394-403] came in with a Confirmed ligand of 1.
CPIGENSPL: the Confirmed ligand is 1.
TPAEVSIVVL [gp100 401-410]: the Confirmed ligand is 1.

The target in another test is T2, HLA-A11 (Homo sapiens, UniProt P04439, A114D/F33Y/S129P).
T2 construct: made in house; host or cells: Escherichia coli
Briefly: MHC ELISA after UV light-mediated peptide exchange. It counts as binding. Details: key: 1 = confirm ed ligand. The settings on record: MHC rescue after UV-induced peptide exchange, absorbance normalized to control ligand HLA-A11/EBV EBNA4AVF, selected if above 0.90 of control in either of two experiments, duplicates. On the technique in general: ELISA stands for enzyme-linked immunosorbent assay.
Sequence ALLAVGATK [gp100 17-25] came in with a Confirmed ligand of 1.
As to IALNFPGSQK [gp100 86-95], the Confirmed ligand came out at 1.
As for SVLEVFEGR [MAGE-A3 226-234], the Confirmed ligand is listed as 1.
In turn, CMTVDSLVNK [TRP-2 29-38] displayed a Confirmed ligand of 1.
As to RALVETSYVK [MAGE-A3 276-285], the Confirmed ligand was found to be 1.
As for AIFDEWMKR [TRP-2 401-409], the Confirmed ligand came out at 1.
Consider GTYEGLLRR [TRP-2 301-309], for which the Confirmed ligand stood at 1.
The same measure, in the same setting: next, PLMETHLSSK [TRP-2 504-513]: 1; VSSKNLMEK [Tyrosinase 25-33]: 1.
The sequence MGFNCGNCK [Tyrosinase 96-104] had a Confirmed ligand of 1.
Still for that read-out and setting: the value for LLGDNQIMPK [MAGE-A3 189-198] was 1.
The sequence FLLSCLGCK [TRP-2 8-16] came in with a Confirmed ligand of 1.
Still for that read-out and setting: next, KISGGPHISY [MAGE-A3 292-301]: 1.
In turn, MVPFIPLYR [Tyrosinase 426-434] showed a Confirmed ligand of 1.
Regarding QTSAGHFPR [Tyrosinase 14-22], the Confirmed ligand turned out to be 1.
Consider YMVPFIPLYR [Tyrosinase 425-434], for which the Confirmed ligand was 1.
For ALVETSYVK [MAGE-A3 277-285], the Confirmed ligand came out at 1.
In turn, AGYNCGDCK [TRP-2 102-110] showed a Confirmed ligand of 1.
For FTIPYWDWR [Tyrosinase 231-239], the Confirmed ligand is reported as 1.
For NQMGRNSMK [TRP-2 310-318], the Confirmed ligand is reported as 1.
Regarding RTKAWNRQLY [gp100 40-49], the Confirmed ligand is 1.
Same read-out and setting: next, FMGFNCGNCK [Tyrosinase 95-104]: 1; QYFFPVIFSK [MAGE-A3 144-153]: 1; GTATLRLVK: 1.
VTVYHRRGSR [gp100 186-195] displayed a Confirmed ligand of 1.
Consider GTQCALTRR [Mart1 65-73], for which the Confirmed ligand is 1.
In the case of SSLPTTMNY [MAGE-A3 69-77], the Confirmed ligand is 1.
MTVDSLVNK [TRP-2 30-38]: the Confirmed ligand is listed as 1.
As for HTMEVTVYH [gp100 182-190], the Confirmed ligand worked out at 1.
GVSRQLRTK [gp100 34-42]: the Confirmed ligand was 1.
ALNFPGSQK [gp100 87-95] registered a Confirmed ligand of 1.
Take VSCQGGLPK [gp100 514-522]: the Confirmed ligand is 1.
Turning to VVLASLIYR [gp100 609-617], the Confirmed ligand turned out to be 1.
Still for that read-out and setting: the value for CVSSKNLMEK [Tyrosinase 24-33] was 1; that for NIFDLSAPEK [Tyrosinase 122-131] was 1.

For the next test, the target named is T3, HLA-A3 (Homo sapiens, UniProt P04439).
T3 construct: made in house; host or cells: Escherichia coli
Briefly: MHC ELISA after UV light-mediated peptide exchange. Details: key: 1 = confirm ed ligand. The format is binding. The settings on record: MHC rescue after UV-induced peptide exchange, absorbance normalized to control ligand HLA-A3/FLU NPILR, selected if above 0.63 and 0.50 of control, respectively, in either of two experiments, duplicates.
For ALLAVGATK [gp100 17-25], the Confirmed ligand came out at 1.
The sequence IALNFPGSQK [gp100 86-95] returned a Confirmed ligand of 1.
GTYEGLLRR [TRP-2 301-309] came in with a Confirmed ligand of 1.
LLRRNQMGR [TRP-2 306-314] returned a Confirmed ligand of 1.
Turning to VSSKNLMEK [Tyrosinase 25-33], the Confirmed ligand worked out at 1.
For FLLSCLGCK [TRP-2 8-16], the Confirmed ligand was found to be 1.
In turn, TVSCQGGLPK [gp100 513-522] registered a Confirmed ligand of 1.
FLGALDLAK [TRP-2 141-149] came in with a Confirmed ligand of 1.
ALVETSYVK [MAGE-A3 277-285] gave a Confirmed ligand of 1.
For FMGFNCGNCK [Tyrosinase 95-104], the Confirmed ligand is 1.
Consider FFAYLTLAK [Tyrosinase 134-142], for which the Confirmed ligand is listed as 1.
In turn, GTATLRLVK returned a Confirmed ligand of 1.
In turn, SIFEQWLRR [Tyrosinase 395-403] yielded a Confirmed ligand of 1.
On the same count and under the same terms, the value for MTVDSLVNK [TRP-2 30-38] was 1; that for HTMEVTVYH [gp100 182-190] was 1.
In turn, GVSRQLRTK [gp100 34-42] yielded a Confirmed ligand of 1.
SLLCRHKRK [Tyrosinase 497-505] came in with a Confirmed ligand of 1.
The sequence ALNFPGSQK [gp100 87-95] showed a Confirmed ligand of 1.
In turn, VVLASLIYR [gp100 609-617] registered a Confirmed ligand of 1.
Same read-out and setting: next, CVSSKNLMEK [Tyrosinase 24-33]: 1; KSYLEQASR [Tyrosinase 465-473]: 1.
In turn, NIFDLSAPEK [Tyrosinase 122-131] came in with a Confirmed ligand of 1.
Still for that read-out and setting: next, QLVLHQILK: 1.
